Assay results from article PMC11528066, “Noninvasive Monitoring of Programmed Death-Ligand 2 Expression with Positron Emission Tomography using ^68Ga-labeled Peptide Antagonist in Preclinical and Exploratory Human Studies” (Research, 2024).
Peptide text beside a SMILES is read from it. * marks the point of attachment. NOTA = O=C(O)CN1CCN(CC(=O)O)CCN(CC(=O)*)CC1; AEEEA = NCCOCCOCCOCC(=O)O

Assays:
[1] = system: A549 tumor xenograft models; experiment: Dynamic micro-PET imaging in A549 xenografts; type: in vivo, BALB/C nude mice; settings: each time point 10 to 60 min, n = 3
Description: Micro-PET imaging was conducted using an Inveon PET scanner (Siemens, Germany). Dynamic PET examine were acquired over the first 60 min following the simultaneous injection of 7.4 to 9.25 MBq (200 to 250 μCi) of [^68Ga]Ga-HN11-1 and [^68Ga]Ga-HN11-2. After reconstructing the images and delineating the regions of interest (ROIs), time-radioactivity curves were plotted to obtain the Tumor/Muscle (T/M) ratios. %ID/g represents the percentage of the injected dose of the radiotracer that accumulates in a specific tissue per gram of tissue weight. For the biodistribution study, the xenograft models received an intravenous injection of 3.7 to 5.5 MBq (100 to 150 μCi) of [^68Ga]Ga-HN11-1. After the designated period (10, 30, 60, and 90 min), the mice were euthanized, and important tissues and organs were dissected and collected. The samples were counted using the γ-counter for determining the %ID/g, presented as mean ± standard deviation (SD).
A549 cell lines were provided by the China Center for Type Culture Collection (CCTCC) and cultured in RPMI-1640 medium supplemented with 10 % fetal bovine serum and 100 U/mL penicillin-streptomycin. The lentivirus system was implemented to introduce PD-L2 (PDCD1LG2) over-expressed cDNA into the A549 cells. […] Transfection efficiency was identified by WB and real-time quantitative PCR. […]

PD-L2 = target: T1, PD-L2 (Homo sapiens, UniProt Q9BQ51); experiment: [^68Ga]Ga-HN11-1 PET/CT imaging in cancer patients; type: in vivo
T1 construct: from tissue; host or cells: tumour lesions (NSCLC, recurrent or metastatic HNSCC) in living patients
T1 sequence (Q9BQ51 20-273): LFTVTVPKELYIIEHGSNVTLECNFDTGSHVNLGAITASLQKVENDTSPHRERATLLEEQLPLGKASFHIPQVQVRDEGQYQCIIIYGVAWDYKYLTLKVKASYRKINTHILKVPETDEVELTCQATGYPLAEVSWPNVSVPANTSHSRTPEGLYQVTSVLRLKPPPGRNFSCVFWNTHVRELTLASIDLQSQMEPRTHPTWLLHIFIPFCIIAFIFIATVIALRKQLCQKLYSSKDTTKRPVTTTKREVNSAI
Description: The program content was explained to all healthy volunteers and cancer patients, and written informed consent was obtained. Whole-body dynamic imaging was conducted for 60 min using a PET/CT 690 Elite scanner (GE Discovery) immediately after intravenous injection of [^68Ga]Ga-HN11-1 (3.1 to 4.9 MBq/kg). A static body scan was performed 15 to 45 min after injection. All cancer patients underwent [^18F]F-FDG and [^68Ga]Ga-HN11-1 PET/CT imaging within 5 d. Two nuclear medicine physicians reconstructed and reviewed the images on GE aw 4.6 workstations and reached a consensus. They delineated the ROIs and measured the values of maximum standard uptake and average standard uptake (SUVmax and SUVmean). The biological distribution of [^68Ga]Ga-HN11-1 in healthy volunteers was determined by SUVmax and SUVmean. The OLINDA/EXM software (version 1.0, Hermes Medical Solutions AB) was used to estimate the human radiation dose based on the SUVmean of each organ.

A549-PD-L2 cell lines = experiment: Cell uptake assay; type: cell-based; settings: A549-PD-L2 cells, n = 5; for cell uptake rate: mean ± SD
Description: Cell uptake assays were conducted to measure the uptake of [^68Ga]Ga-HN11-1 and [^68Ga]Ga-HN11-2 in A549 and A459-PD-L2 cell lines following incubation periods of 15, 30, 60, and 90 min. Blocking studies were performed by coincubating cells with an excess of precursor (HN11-1 / HN11-2), and then the cell uptakes of [^68Ga]Ga-HN11-1 and [^68Ga]Ga-HN11-2 were performed in A459-PD-L2 cell lines after 60 min of incubation. The experiment details are provided in the SI.
All tumor cells (1 × 10^6 per well) were seeded in two 24 - well plates, incubated for 24 h and then added with […] of [^68Ga]Ga-HN11-1 or [^68Ga]Ga-HN11-2 per well. After 15, 30, 60 and 90 min of uptake, the cells were separated from the medium, washed with 500 μL of cold PBS for three times and dissolved with 1 M NaOH. At different time points, these cells were collected and counted by using a γ-counter (WIZARD 2480, Pekin Elmer). For in vitro blocking experiments, cells were co-incubated with 10 μg of cold HN11-1 or HN11-2 precursor. After incubation, the cells were washed, collected and measured with a γ-counter, either. The IC50 values of [^68Ga]Ga-HN11-1 or [^68Ga]Ga-HN11-2 were determined using GraphPad Prism 8.0.2 software, respectively.

[2] = In vitro stability in saline (radio-HPLC); type: physicochemical; settings: room temperature, over 4 h (0.5, 1, 2, 4 h), 3.74 MBq
Description: The in vitro stability of [^68Ga]Ga-HN11-1 and [^68Ga]Ga-HN11-2 (3.74 MBq) in saline and serum was tested by radio-HPLC analysis of its radiochemical purity after incubation at room temperature for 0.5 , 1 , 2 and 4 h.

median SUVmax (PD-L2; all patients, n = 6): 3.25
HN11-1 SUVmax (PD-L2; patient 1, NSCLC, lung, PD-L2 expression 80 %): 4.1
HN11-1 SUVmax (PD-L2; patient 2, NSCLC, lung, PD-L2 expression 15 %): 2.1
HN11-1 SUVmax (PD-L2; patient 3, rHNSCC, buccal): 4.0
HN11-1 SUVmax (PD-L2; patient 4, rHNSCC, buccal): 3.0
in vitro stability in saline (radiochemical purity) [2]: > 95%
Compound: CC[C@H](C)[C@H](NC(=O)[C@H](CCCNC(=N)N)NC(=O)CNC(=O)[C@H](CCC(=O)O)NC(=O)[C@H](CC(N)=O)NC(=O)[C@H](Cc1ccc(O)cc1)NC(=O)[C@H](CCCNC(=N)N)NC(=O)[C@H](Cc1ccc(O)cc1)NC(=O)[C@H](Cc1c[nH]cn1)NC(=O)COCCOCCOCCNC(=O)CN1CCN(CC(=O)O)CCN(CC(=O)O)CC1)C(=O)N[C@@H](CCCNC(=N)N)C(=O)N[C@@H](CC(N)=O)C(=O)O [[^68Ga]Ga-HN11-1, metal not drawn] ({NOTA-AEEEA}-HYRYNEGRIRN-OH)
tumor uptake in A549 tumor xenograft models [1]: almost negligible
cell uptake rate (A549-PD-L2 cell lines; 30 min incubation, γ-counter): 4.51 ± 0.04%
cell uptake, block group (A549-PD-L2 cell lines; 60 min, with excess (10 μg) of cold HN11-1 / HN11-2 precursor): 1.43 ± 0.13%
cell uptake rate (A549-PD-L2 cell lines; 60 min incubation): 4.87 ± 0.28%
